In patent US7955623B2, “Pharmaceutical preparations for treating inflammatory diseases” (priority 2008, dated 2011):
Entries after “also recorded” stand apart in the source; their conditions may differ. Peptide text beside a SMILES is read from it. * marks the point of attachment. Cbz = O=C(OCc1ccccc1)*; OtBu = CC(C)(C)O*

Tested on: NF-κB
Test: Electrophoretic mobility shift assay of TNF-induced NF-κB activation in cell lines
Assay type: cell-based, human
Conditions: for Inhibition of TNF-induced NF-κB-activity: preincubation 10 μM, 1 hr, n=3; for Effect on TNF-induced NF-κB-activity of ozonized substance in phosphate-buffered saline: medium concentration in PBS, 100% ozonation state, 1 hr preincubation, TNF 1 ng/mL 15 min
Procedure: A) BHY cells were preincubated with serum-free O3-medium (15 min; the ozonation state is indicated in %) before TNF was added (20 ng/mL, 45 min) and electrophoretic mobility shift assay was performed (NF-κB and Sp-1 binding). The asterisk marks a control reaction in which a 100-fold concentration of unlabeled consensus oligonucleotide was added. B) Cells were treated with O3-medium (HGF-1, 45 min; HeLa, 1 hr) followed by stimulation with TNF (HGF-1, 5 ng/mL for 45 min; HeLa, 1 ng/mL for 15 min). NF-κB-activity normalized to Sp-1 is shown (densitometric analysis). NF-κB-activity after TNF stimulation following preincubation with non-ozonized medium was defined as 100% (dashed line) (n=3, mean±SD). C) Periodontal ligament tissue debris separated into equal-sized portions was incubated (1 hr, 37° C.) with serum-free non-ozonized medium (indicated by “-”) or O3-medium (100% ozonation state, indicated by “+”) followed by 2 hr incubation in fresh medium without ozone. The samples were shock frozen, homogenized and nuclear extracts prepared. Left: Electrophoretic mobility shift assays were performed (NF-κB and Sp-1 binding). The asterisk marks a control reaction in which a 100-fold concentration of unlabeled consensus oligonucleotide was added. Right: Densitometrically measured NF-κB-activity was normalized to Sp-1 (n=3, mean±SD). […] A) HeLa cells were incubated with O3-phosphate-buffered saline (1 hr) followed by TNF stimulation (1 ng/mL, 15 min). The ozonation state is indicated in %. Electrophoretic mobility shift assay was performed to determine NF-κB-activity as well as Sp-1 binding. B) Cells were preincubated (1 hr) with non-ozonized or ozonized amino acids (medium concentration) dissolved in phosphate-buffered saline (100% ozonation state) followed by stimulation with TNF (1 ng/mL, 15 min). The activation of NF-κB was determined by electrophoretic mobility shift assay. C) Densitometric analysis of the NF-κB-activity normalized to Sp-1 is shown (n=3, mean±SD). NF-κB-activity of cells preincubated with non-ozonized amino acids in phosphate-buffered saline and stimulated with TNF was defined as 100% (dashed line). D) HeLa cells were preincubated with non-ozonized or ozonized glucose (medium concentration) followed by TNF stimulation. The NF-κB-activity compared to Sp-1 binding was determined by electrophoretic mobility shift assay. […] The proteasome inhibitor PSI was from Calbiochem (Darmstadt, Germany). A potential toxicity of culture conditions was monitored by cell morphology/count, trypan-blue-exclusion and the Luminescent-Cell-Viability-Assay (Promega, Mannheim, Germany). […] Aqueous ozone was applied to the cells in form of ozonized medium without fetal calf serum (O3-medium) or ozonized phosphate-buffered saline (O3-phosphate-buffered saline) without/with 1 g/L amino acids or 2 g/L glucose. These solutions were treated with gaseous ozone (75 μg/mL, 15 min) using an ozone generator (Ozonosan-photonic, Dr. […], Germany). This condition, which applied to water would result in a final ozone concentration of 20 μg/mL (saturation point), was defined as the 100% ozonation state. For dose response experiments, the solutions were accordingly diluted. The ozone gas concentration was monitored by a photometer integrated in the ozone generator and confirmed by another ozone gas detector (GM-6000-NZL, Anseros, Tubingen, Germany). The ozone concentrations of the respective aqueous solutions were monitored photometrically ([…], England). […] The prototypic immunoglobulin κ-chain oligonucleotide was used as a probe and labeled with the Klenow fragment of DNA polymerase I (Roche, Penzberg, Germany) together with [α-^32P]dCTP (PerkinElmer-LifeSciences, Brussels, Belgium). The Sp-1 consensus oligonucleotide (Promega) was labeled with [γ-^32P]ATP (PerkinElmer-LifeSciences) and T4-polynucleotide-kinase (Roche). Samples were run on non-denaturing 4% polyacrylamide gels and analyzed by autoradiography.

| Compound | Inhibition of TNF-induced NF-κB-activity (BHY cells) [%] | Inhibition of TNF-induced NF-κB-activity (HeLa cells) [%] | Effect on TNF-induced NF-κB-activity of ozonized substance in phosphate-buffered saline |
| --- | --- | --- | --- |
| CC[C@H](C)[C@H](NC(=O)OCc1ccccc1)C(=O)N[C@@H](CCC(=O)OC(C)(C)C)C(=O)N[C@@H](C)C(=O)N[C@H](C=O)CC(C)C [PSI, reference compound] (Cbz-IE(OtBu)AL-aldehyde) | 68±7 | 75±6 | – |
| C[C@H](N)C(=O)O [alanine] | – | – | slight reduction |
| N[C@@H](CS)C(=O)O [cysteine] | – | – | blocked the NF-κB signal almost completely; also recorded: most effective |
| NCC(=O)O [glycine] | – | – | did not have any effect |
| CSCC[C@H](N)C(=O)O [methionine] | – | – | clear inhibition |
| N[C@@H](Cc1c[nH]c2ccccc12)C(=O)O [tryptophan] | – | – | blocked the NF-κB signal almost completely; also recorded: most effective |
